Patent US9067949B2, “Benzofuro[3,2-c] pyridines and related analogs as serotonin sub-type 6 (5-HT6) modulators for the treatment of obesity, metabolic syndrome, cognition and schizophrenia” (Albany Molecular Research, Inc., priority 2011, dated 2015)
Structures can show the parent of a compound that is named as a salt.

Target: human 5-HT6 receptor (Homo sapiens (Human), UniProt P50406)
Experiment: 5-HT6 radioligand binding assay (SPA format, [N-methyl-3H]-LSD)
Settings: human 5-HT6 receptor membranes, 10 nM [N-methyl-3H]-LSD; Ki by Cheng-Prusoff; hydrochloride; read-out: human 5HT6 Ki
Experimental: The relative affinities of the various compounds for the 5-HT6 receptor were measured in a radioligand binding assay, using a scintillation proximity assay (SPA) format.
For binding analysis vs. the human receptor, samples were incubated in 50 mM Tris-HCl, pH 7.5, 5 mM MgCl2, 1 mM EDTA (4% DMSO final) with 10 nM [N-methyl-^3H]-LSD (Perkin Elmer), 2.5 ng of human 5-HT6 receptor membranes (Millipore) and 50 μg SPA beads (PVT-PEI-WGA, GE Healthcare) per well in a final volume of 0.2 mL. […] Binding reactions were performed in PicoPlate96 microtiter plates (Perkin Elmer) by consecutively adding 50 μL of each competing compound or buffer, SPA beads, radioligand and 5-HT6 receptor membranes. After an overnight incubation at room temperature on a Nutator mixer, plates were centrifuged for 15 min at 1,500 rpm, followed by incubation in the dark for 10 min. […] Total binding control contained compound dilution buffer only; nonspecific binding is determined in the presence of 100 μM 5-hydroxytryptamine. Specific binding was determined by subtracting nonspecific binding from total binding.
All experiments were performed in duplicate using ten concentrations of competing ligand, with clozapine included as a control in every run. IC50 values were determined from specific binding data using XLfit4.1 curve fitting software from IDBS Ltd. The inhibition constant (Ki) was calculated using the Cheng-Prusoff equation: (Ki=IC50/(1+(L/KD)), where L=concentration of radioligand in the assay, and KD=affinity of the radioligand for the receptor.

Chain of human 5-HT6 receptor (P50406 whole entry): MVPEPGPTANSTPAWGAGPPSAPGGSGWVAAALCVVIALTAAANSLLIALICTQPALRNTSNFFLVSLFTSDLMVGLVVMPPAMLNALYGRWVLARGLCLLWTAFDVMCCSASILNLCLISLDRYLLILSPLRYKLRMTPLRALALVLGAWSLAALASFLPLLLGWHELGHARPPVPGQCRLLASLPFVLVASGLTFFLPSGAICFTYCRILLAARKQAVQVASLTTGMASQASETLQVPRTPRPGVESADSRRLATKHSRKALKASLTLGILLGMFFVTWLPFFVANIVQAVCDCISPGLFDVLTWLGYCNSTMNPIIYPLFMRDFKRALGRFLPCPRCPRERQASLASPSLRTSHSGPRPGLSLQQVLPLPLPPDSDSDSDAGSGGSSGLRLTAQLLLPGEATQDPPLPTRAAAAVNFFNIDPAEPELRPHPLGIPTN

Compared with `CC1NCCc2oc3c(Cl)cc(S(=O)(=O)c4ccccc4)cc3c21` (racemic) [Example 81a, 6-chloro-1-methyl-8-(phenylsulfonyl)-1,2,3,4-tetrahydrobenzofuro[3,2-c]pyridine hydrochloride], `CC1Cc2oc3c(Cl)cc(S(=O)(=O)c4ccccc4)cc3c2CN1` (racemic) [Example 81b, 6-chloro-3-methyl-8-(phenylsulfonyl)-1,2,3,4-tetrahydrobenzofuro[3,2-c]pyridine hydrochloride] is 54-fold higher in Ki: 0.35 nM for the first, 19 nM for the second. The first binds more tightly here.

Going from `CC1Cc2oc3c(Cl)cc(S(=O)(=O)c4ccccc4)cc3c2CN1` (single isomer, unassigned; (+)) [Example 83b, (+) 6-chloro-3-methyl-8-(phenylsulfonyl)-1,2,3,4-tetrahydrobenzofuro[3,2-c]pyridine hydrochloride] to `CC1NCCc2oc3c(Cl)cc(S(=O)(=O)c4ccccc4)cc3c21` (single isomer, unassigned; (-)) [Example 82b, (−) 6-chloro-1-methyl-8-(phenylsulfonyl)-1,2,3,4-tetrahydrobenzofuro[3,2-c]pyridine hydrochloride], the Ki falls from 16 nM to 0.15 nM (110-fold).

Same assay, conditions: human 5-HT6 receptor membranes, 10 nM [N-methyl-3H]-LSD; Ki by Cheng-Prusoff; read-out: human 5HT6 Ki

Compared with `O=S(=O)(c1ccccc1)c1cc(Cl)c2oc3c(c2c1)CC(O)CC3` (racemic) [Example 97, 6-chloro-8-(phenylsulfonyl)-1,2,3,4-tetrahydrodibenzo[b,d]furan-2-ol], `CN1CCc2oc3c(Cl)cc(S(=O)(=O)c4ccccc4)cc3c2C1` [Example 116] is 1.7-fold lower in Ki: 1.7 nM for the first, 1 nM for the second.

First: O=S(=O)(c1cccc(C(F)(F)F)c1)c1cc(Cl)c2oc3c(c2c1)CNCC3 [Example 45, 6-Chloro-8-(3-trifluoromethylphenylsulfonyl)-1,2,3,4-tetrahydrobenzofuro[3,2-c]pyridine hydrochloride]
Second: CC(C)(O)c1cccc(S(=O)(=O)c2cc(Cl)c3oc4c(c3c2)CNCC4)c1 [Example 107]
The Ki of the first is 1.6-fold lower: 0.48 nM for the first, 0.79 nM for the second.

First: O=S(=O)(c1cccc(Cl)c1)c1cc(Cl)c2oc3c(c2c1)CNCC3 [Example 46, 6-Chloro-8-(3-chlorophenylsulfonyl)-1,2,3,4-tetrahydrobenzofuro[3,2-c]pyridine hydrochloride]
Second: O=S(=O)(c1cccc(CO)c1)c1cc(Cl)c2oc3c(c2c1)CNCC3 [Example 110]
The Ki of the first is 13-fold lower: 0.35 nM for the first, 4.4 nM for the second. The first binds more tightly here.

First: O=S(=O)(c1cc(Cl)c2oc3c(c2c1)CNCC3)n1ccc2ccccc21 [Example 51, 8-(1H-Indol-1-ylsulfonyl)-6-chloro-1,2,3,4-tetrahydrobenzofuro[3,2-c]pyridine hydrochloride]
Second: O=S(=O)(c1cc(Cl)c2oc3c(c2c1)CNCC3)c1ccccc1Cl [Example 100]
The Ki of the first is 3.9-fold lower: 0.2 nM for the first, 0.77 nM for the second.

Compared with `Cc1cc(S(=O)(=O)c2ccccc2)cc2c3c(oc12)CCNC3` [Example 53, 6-Methyl-8-(phenylsulfonyl)-1,2,3,4-tetrahydrobenzofuro[3,2-c]pyridine hydrochloride], `O=S(=O)(c1ccccc1)c1cc(CO)c2oc3c(c2c1)CNCC3` [Example 74, (8-(phenylsulfonyl)-1,2,3,4-tetrahydrobenzofuro[3,2-c]pyridin-6-yl)methanol hydrochloride] is 59-fold higher in Ki: 0.22 nM for the first, 13 nM for the second. The first binds more tightly here.

First: O=S(=O)(c1cccc(F)c1)c1ccc2c3c(oc2c1)CC1CCC3N1 (stereo not shown) [Example 66, 3-(3-Fluorophenyl)sulfonyl-6,7,8,9,10-pentahydro-7,10-epiminocyclohepta[b]benzofuran hydrochloride]
Second: N#Cc1cc(S(=O)(=O)c2cccc(F)c2)cc2c3c(oc12)CCNC3 [Example 73, 8-(3-fluorophenylsulfonyl)-1,2,3,4-tetrahydrobenzofuro[3,2-c]pyridine-6-carbonitrile hydrochloride]
The Ki of the first is 120-fold higher: 533 nM for the first, 4.3 nM for the second. The second binds more tightly here.

Compared with `COc1cc(S(=O)(=O)c2ccc3[nH]ccc3c2)cc2c3c(oc12)CCNC3` [Example 70, 8-(1H-indol-5-ylsulfonyl)-6-methoxy-1,2,3,4-tetrahydrobenzofuro[3,2-c]pyridine hydrochloride], `COc1cccc(S(=O)(=O)c2cc(Cl)c3oc4c(c3c2)CNCC4)c1` [Example 123] is 14-fold higher in Ki: 0.083 nM for the first, 1.2 nM for the second. The first binds more tightly here.

First: O=S(=O)(c1cccc(C2CCOC2)c1)c1cc(Cl)c2oc3c(c2c1)CNCC3 (stereo not shown) [Example 71, 6-chloro-8-(3-(tetrahydrofuran-3-yl)phenylsulfonyl)-1,2,3,4-tetrahydrobenzofuro[3,2-c]pyridine hydrochloride]
Second: O=S(=O)(c1ccc(C2CCO2)cc1)c1cc(Cl)c2oc3c(c2c1)CNCC3 (stereo not shown) [Example 126]
The Ki of the first is 5-fold lower: 2 nM for the first, 10 nM for the second.

`O=S(=O)(c1ccc(CO)cc1)c1cc(Cl)c2oc3c(c2c1)CNCC3` [Example 72, (4-((6-chloro-1,2,3,4-tetrahydrobenzofuro[3,2-c]pyridin-8-yl)sulfonyl)phenyl)methanol hydrochloride] and `COCc1ccc(S(=O)(=O)c2cc(Cl)c3oc4c(c3c2)CNCC4)cc1` [Example 109] are within 1.5-fold of each other in Ki: 12 nM for the first, 14 nM for the second.

Compared with `O=S(=O)(c1ccccc1)c1cc(-n2cccn2)c2oc3c(c2c1)CNCC3` [Example 76, 8-(phenylsulfonyl)-6-(1H-pyrazol-1-yl)-1,2,3,4-tetrahydrobenzofuro[3,2-c]pyridine hydrochloride], `O=S(=O)(c1cccc(-n2cccn2)c1)c1cc(Cl)c2oc3c(c2c1)CNCC3` [Example 103] is 4.2-fold lower in Ki: 9.3 nM for the first, 2.2 nM for the second.

Compared with `O=S(=O)(c1ccccc1)c1cc(-c2cn[nH]c2)c2oc3c(c2c1)CNCC3` [Example 77, 8-(phenylsulfonyl)-6-(1H-pyrazol-4-yl)-1,2,3,4-tetrahydrobenzofuro[3,2-c]pyridine hydrochloride], `CNC(=O)c1cc(S(=O)(=O)c2ccccc2)cc2c3c(oc12)CCNC3` [Example 78, N-methyl-8-(phenylsulfonyl)-1,2,3,4-tetrahydrobenzofuro[3,2-c]pyridine-6-carboxamide hydrochloride] is 22-fold higher in Ki: 28 nM for the first, 607 nM for the second. The first binds more tightly here.

First: O=S(=O)(c1ccccc1)c1cc(Cl)c2oc3c(c2c1)CNC(CO)C3 (stereo not shown) [Example 86, (6-chloro-8-(phenylsulfonyl)-1,2,3,4-tetrahydrobenzofuro[3,2-c]pyridin-3-yl)methanol hydrochloride]
Second: O=S(=O)(c1ccccc1)c1cc(Cl)c2oc3c(c2c1)CCNCC3 [Example 90, 7-chloro-9-(phenylsulfonyl)-2,3,4,5-tetrahydro-1H-benzofuro[2,3-d]azepine hydrochloride]
The Ki of the first is 2100-fold higher: 522 nM for the first, 0.25 nM for the second.

First: O=S(=O)(c1ccccc1)c1cc(Cl)c2oc3c(c2c1)C(CF)NCC3 (stereo not shown) [Example 87, 6-chloro-1-fluoromethyl-8-phenylsulfonyl-1,2,3,4-tetrahydrobenzofuro[3,2-c]pyridine hydrochloride]
Second: CN(C)C(=O)C1NCCc2oc3c(Cl)cc(S(=O)(=O)c4ccccc4)cc3c21 (stereo not shown) [Example 88, 6-chloro-N,N-dimethyl-8-(phenylsulfonyl)-1,2,3,4-tetrahydrobenzofuro[3,2-c]pyridine-1-carboxamide hydrochloride]
The Ki of the first is 63-fold lower: 4 nM for the first, 252 nM for the second. The first binds more tightly here.

First: O=S(=O)(c1cc(Cl)c2oc3c(c2c1)CNCC3)c1ccccc1OC(F)(F)F [Example 102]
Second: O=S(=O)(c1cc(Cl)c2oc3c(c2c1)CNCC3)c1ccccc1CO [Example 122]
The Ki of the first is 1.6-fold lower: 3.3 nM for the first, 5.4 nM for the second.

Compared with `O=S(=O)(c1ccc(-n2cccn2)cc1)c1cc(Cl)c2oc3c(c2c1)CNCC3` [Example 104], `O=S(=O)(c1ccc(F)cc1)c1cc(Cl)c2oc3c(c2c1)CNCC3` [Example 128] is 8.7-fold lower in Ki: 26 nM for the first, 3 nM for the second.

Compared with `O=S(=O)(c1ccc2c(c1)COCC2)c1cc(Cl)c2oc3c(c2c1)CNCC3` [Example 105], `O=S(=O)(c1ccc2c(c1)CCOC2)c1cc(Cl)c2oc3c(c2c1)CNCC3` [Example 106] is 5.2-fold lower in Ki: 13 nM for the first, 2.5 nM for the second.

Going from `CC(C)(O)c1ccc(S(=O)(=O)c2cc(Cl)c3oc4c(c3c2)CNCC4)cc1` [Example 108] to `O=S(=O)(c1ccc(OC(F)F)cc1)c1cc(Cl)c2oc3c(c2c1)CNCC3` [Example 113], the Ki rises from 1.3 nM to 2.2 nM (1.7-fold). The first binds more tightly here.

First: O=S(=O)(c1ccccc1)c1cc(Cl)c2oc3c(c2c1)CN(CCC(F)(F)F)CC3 [Example 114]
Second: CCN1CCc2oc3c(Cl)cc(S(=O)(=O)c4ccccc4)cc3c2C1 [Example 117]
The Ki of the first is 16-fold higher: 19 nM for the first, 1.2 nM for the second.

Compared with `O=S(=O)(c1ccccc1)c1cc(Cl)c2oc3c(c2c1)CN(c1cccnc1)CC3` [Example 115], `O=S(=O)(c1cccnc1)c1cc(Cl)c2oc3c(c2c1)CNCC3` [Example 120] is 4.7-fold lower in Ki: 123 nM for the first, 26 nM for the second. The second binds more tightly here.

`O=S(=O)(c1cncc(Cl)c1)c1cc(Cl)c2oc3c(c2c1)CNCC3` [Example 119] and `O=S(=O)(c1cncc(C(F)(F)F)c1)c1cc(Cl)c2oc3c(c2c1)CNCC3` [Example 121] are within 1.5-fold of each other in Ki: 20 nM for the first, 29 nM for the second.

First: Cn1ncc2cc(S(=O)(=O)c3cc(Cl)c4oc5c(c4c3)CNCC5)ccc21 [Example 124]
Second: O=S(=O)(c1ccc(F)c(F)c1)c1cc(Cl)c2oc3c(c2c1)CNCC3 [Example 127]
The Ki of the first is 9.2-fold higher: 37 nM for the first, 4 nM for the second.

First: O=S(=O)(c1cc(F)cc(Cl)c1)c1cc(Cl)c2oc3c(c2c1)CNCC3 [Example 125]
Second: O=S(=O)(c1cc(F)cc(F)c1)c1cc(Cl)c2oc3c(c2c1)CNCC3 [Example 129]
The Ki of the first is 4.3-fold lower: 2.3 nM for the first, 9.9 nM for the second. The first binds more tightly here.

With `O=S(=O)(c1cc(Cl)cc(Cl)c1)c1cc(Cl)c2oc3c(c2c1)CNCC3` [Example 130] the Ki was 6 nM.
